From patent publication EP0745595A1, “3-(3-Aryloxyphenyl)-1-(substituted methyl)-s-triazine-2,4,6-oxo or thiotrione herbicidal agents” (American Cyanamid Company, priority 1995, dated 1996)

How the values were obtained:
Type in all cases: in vivo
[1] = tested on: ECHINOCHLOA CRUS-GALLI; experiment: Preemergence evaluation in the presence of transplanted rice under flooded paddy conditions (Example 43), ECHCG (Barnyard Grass); design: key: visual rating on a 0-9 scale, compared with control; conditions: applied three days after sowing, 25 to 30 days after treatment
Protocol: (§1) Results of herbicide evaluation are expressed on a rating scale (0-9). The scale is based upon a visual observation of plant stand, vigor, malformation, size, chlorosis and overall plant appearance as compared with a control.
(§2) In this example, Deluvian paddy soil (Toyokawa paddy soil) is placed in plastic pots, 100cm^2 x 9 cm in depth. Water is added to the level of the soil surface in the pot and the mixture is paddled 3 cm in depth.
(§3) Pots are then variously sown with monocotyledenous weed seeds and tubers at 0-2 cm in soil depth, as well as transplanted rice plants at the 2.5 leaf stage. The rice plants are transplanted at about 3 cm soil depth. Water is then added to all of the pots to 3 cm deep and kept at a depth of 3 cm for the duration of the test. Test compounds are applied in the manner described in Example 42 three days after transplanting the rice plants and sowing the weed seeds and tubers. The pots are then placed on greenhouse benches and cared for in the conventional manner. Tests are examined at 25 to 30 days after treatment and rated according to the rating system provided in Example 40. The compounds evaluated are reported by compound number given in Example 40.

[2] = tested on: SAGITTARIA PYGMAEA; experiment: Preemergence evaluation in the presence of transplanted rice under flooded paddy conditions (Example 43), SAGPY (Arrowhead (Pygmaea)); design: key: visual rating on a 0-9 scale, compared with control; conditions: applied three days after sowing, 25 to 30 days after treatment
Protocol: as §1, §2, §3

[3] = tested on: […]; experiment: Preemergence evaluation in the presence of transplanted rice under flooded paddy conditions (Example 43), MOOVA (Monochoria); conditions: applied three days after sowing, 25 to 30 days after treatment
Protocol: as §1, §2, §3

[4] = tested on: CYPERUS DIFFORMIS; experiment: Preemergence evaluation in the presence of transplanted rice under flooded paddy conditions (Example 43), CYPDI (Flatsedge, smallflower); design: key: visual rating on a 0-9 scale, compared with control; conditions: applied three days after sowing, 25 to 30 days after treatment
Protocol: as §1, §2, §3

[5] = tested on: SCIRPUS JUNCOIDES; experiment: Preemergence evaluation in the presence of transplanted rice under flooded paddy conditions (Example 43), SCPJU (Bulrush, Japanese); design: key: visual rating on a 0-9 scale, compared with control; conditions: applied three days after sowing, 25 to 30 days after treatment
Protocol: as §1, §2, §3

[6] = tested on: ORYZA SATIVA, L. CV. KOSHIHIKARI; experiment: Post-transplant rice evaluation under flooded paddy conditions (Example 43), ORYSAK (Rice, Koshihikari); design: key: visual rating on a 0-9 scale, compared with control; conditions: applied three days after transplanting rice, 25 to 30 days after treatment
Protocol: as §1, §2, §3

[7] = tested on: CYPERUS SEROTINUS; experiment: Preemergence evaluation in the presence of transplanted rice under flooded paddy conditions (Example 43), CYPSE (Flatsedge, perennial); design: key: 0-9 visual rating scale vs. untreated control; conditions: applied three days after sowing, 25 to 30 days after treatment
Protocol: as §1, §2, §3

COC(=O)Cn1c(=O)n(C)c(=O)n(-c2cc(Oc3c(F)cc(C(F)(F)F)cc3Cl)ccc2F)c1=O [Compound 4, Methyl 3-{5-[(2-chloro-α,α,α,6-tetrafluoro-p-tolyl)oxy]-2-fluorophenyl}tetrahydro-5-methyl-2,4,6-trioxo-s-triazine-1(2H)-acetate]
Herbicidal effect rating, ECHCG ([1]; 0.032 kg/ha): 9.0 | Herbicidal effect rating, ECHCG ([1]; 0.063 kg/ha): 9.0 | Herbicidal effect rating, ECHCG ([1]; 0.125 kg/ha): 9.0 | Herbicidal effect rating, ECHCG ([1]; 0.250 kg/ha): 9.0 | Herbicidal effect rating, SAGPY ([2]; 0.032 kg/ha): 0.0 | Herbicidal effect rating, SAGPY ([2]; 0.063 kg/ha): 2.0 | Herbicidal effect rating, SAGPY ([2]; 0.125 kg/ha): 6.0 | Herbicidal effect rating, SAGPY ([2]; 0.250 kg/ha): 9.0 | Herbicidal effect rating, MOOVA ([3]; 0.032 kg/ha): 9.0 | Herbicidal effect rating, MOOVA ([3]; 0.063 kg/ha): 9.0 | Herbicidal effect rating, MOOVA ([3]; 0.125 kg/ha): 9.0 | Herbicidal effect rating, MOOVA ([3]; 0.250 kg/ha): 9.0 | Herbicidal effect rating, CYPDI ([4]; 0.032 kg/ha): 9.0 | Herbicidal effect rating, CYPDI ([4]; 0.063 kg/ha): 9.0 | Herbicidal effect rating, CYPDI ([4]; 0.125 kg/ha): 9.0 | Herbicidal effect rating, CYPDI ([4]; 0.250 kg/ha): 9.0 | Herbicidal effect rating, SCPJU ([5]; 0.032 kg/ha): 7.0 | Herbicidal effect rating, SCPJU ([5]; 0.063 kg/ha): 9.0 | Herbicidal effect rating, SCPJU ([5]; 0.125 kg/ha): 9.0 | Herbicidal effect rating, SCPJU ([5]; 0.250 kg/ha): 9.0 | Herbicidal effect rating, ORYSAK ([6]; 0.032 kg/ha): 1.0 | Herbicidal effect rating, ORYSAK ([6]; 0.063 kg/ha): 4.0 | Herbicidal effect rating, ORYSAK ([6]; 0.125 kg/ha): 7.0 | Herbicidal effect rating, ORYSAK ([6]; 0.250 kg/ha): 9.0

COC(=O)Cn1c(=O)n(C)c(=O)n(-c2cc(Oc3ccc(C(F)(F)F)cc3Cl)ccc2[N+](=O)[O-])c1=O [Compound 3, Methyl 3-{5-[(2-chloro-α,α,α-trifluoro-p-tolyl)oxy]-2-nitrophenyl}tetrahydro-5-methyl-2,4,6-trioxo-s-triazine-1(2H)-acetate]
Herbicidal effect rating, ECHCG ([1]; 0.025 kg/ha): 8.0 | Herbicidal effect rating, ECHCG ([1]; 0.050 kg/ha): 9.0 | Herbicidal effect rating, ECHCG ([1]; 0.100 kg/ha): 9.0 | Herbicidal effect rating, ECHCG ([1]; 0.250 kg/ha): 9.0 | Herbicidal effect rating, SAGPY ([2]; 0.025 kg/ha): 0.0 | Herbicidal effect rating, SAGPY ([2]; 0.050 kg/ha): 0.0 | Herbicidal effect rating, SAGPY ([2]; 0.100 kg/ha): 1.0 | Herbicidal effect rating, SAGPY ([2]; 0.250 kg/ha): 3.0 | Herbicidal effect rating, CYPSE ([7]; 0.025 kg/ha): 0.0 | Herbicidal effect rating, CYPSE ([7]; 0.050 kg/ha): 5.0 | Herbicidal effect rating, CYPSE ([7]; 0.100 kg/ha): 8.0 | Herbicidal effect rating, CYPSE ([7]; 0.250 kg/ha): 9.0 | Herbicidal effect rating, MOOVA ([3]; 0.025 kg/ha): 3.0 | Herbicidal effect rating, MOOVA ([3]; 0.050 kg/ha): 5.0 | Herbicidal effect rating, MOOVA ([3]; 0.100 kg/ha): 7.0 | Herbicidal effect rating, MOOVA ([3]; 0.250 kg/ha): 9.0 | Herbicidal effect rating, CYPDI ([4]; 0.025 kg/ha): 5.0 | Herbicidal effect rating, CYPDI ([4]; 0.050 kg/ha): 8.0 | Herbicidal effect rating, CYPDI ([4]; 0.100 kg/ha): 9.0 | Herbicidal effect rating, CYPDI ([4]; 0.250 kg/ha): 9.0 | Herbicidal effect rating, SCPJU ([5]; 0.025 kg/ha): 5.0 | Herbicidal effect rating, SCPJU ([5]; 0.050 kg/ha): 7.0 | Herbicidal effect rating, SCPJU ([5]; 0.100 kg/ha): 9.0 | Herbicidal effect rating, SCPJU ([5]; 0.250 kg/ha): 9.0 | Herbicidal effect rating, ORYSAK ([6]; 0.025 kg/ha): 0.0 | Herbicidal effect rating, ORYSAK ([6]; 0.050 kg/ha): 1.0 | Herbicidal effect rating, ORYSAK ([6]; 0.100 kg/ha): 5.0 | Herbicidal effect rating, ORYSAK ([6]; 0.250 kg/ha): 8.0
